Assay results taken from ChEMBL document CHEMBL5143732 (J Med Chem, 2022).
Values after ≈ are worked out from the molar mass of the structure shown.

Columns and labels:
Type in all cases: functional
Candida albicans = assay: Antifungal activity against Candida albicans assessed as inhibition of fungal growth measured after 48 hrs by CLSI based agar dilution method
Pichia kudriavzevii [1] = assay: Antifungal activity against Candida krusei assessed as inhibition of fungal growth measured after 48 hrs by CLSI based agar dilution method
Candida parapsilosis = assay: Antifungal activity against Candida parapsilosis assessed as inhibition of fungal growth measured after 48 hrs by CLSI based agar dilution method; conditions: Lodderomyces parapsilosis
Candida tropicalis = assay: Antifungal activity against Candida tropicalis assessed as inhibition of fungal growth measured after 48 hrs by CLSI based agar dilution method
Pichia kudriavzevii [2] = assay: Antifungal activity against Candida krusei ATCC 6258 assessed as inhibition of fungal growth measured after 48 hrs by CLSI based agar dilution method
Cryptococcus neoformans = assay: Antifungal activity against Cryptococcus neoformans ATCC 32609 assessed as inhibition of fungal growth measured after 48 hrs by CLSI based agar dilution method

SMILES | MIC (Candida albicans) [µg/mL] | MIC (Pichia kudriavzevii [1]) [µg/mL] | MIC (Candida parapsilosis) [µg/mL] | MIC (Candida tropicalis) [µg/mL] | MIC (Pichia kudriavzevii [2]) [µg/mL] | MIC (Cryptococcus neoformans) [µg/mL]
C[C@@H]1[C@H](O)[C@@H](C)/C=C/C=C/C=C/C=C/C=C/C=C/C=C/[C@H](O[C@@H]2O[C@H](C)[C@@H](O)[C@H](N)[C@@H]2O)C[C@@H]2O[C@](O)(C[C@@H](O)C[C@@H](O)[C@H](O)CC[C@@H](O)C[C@@H](O)CC(=O)O[C@H]1C)C[C@H](O)[C@H]2C(=O)NNC(=O)c1ccc(Cl)cc1 | 4 (≈ 3.72 µM) | 8 (≈ 7.43 µM) | 16 (≈ 14.9 µM) | 8 (≈ 7.43 µM) | 16 (≈ 14.9 µM) | 2 (≈ 1.86 µM)
C[C@@H]1[C@H](O)[C@@H](C)/C=C/C=C/C=C/C=C/C=C/C=C/C=C/[C@H](O[C@@H]2O[C@H](C)[C@@H](O)[C@H](NC(=O)CCN)[C@@H]2O)C[C@@H]2O[C@](O)(C[C@@H](O)C[C@@H](O)[C@H](O)CC[C@@H](O)C[C@@H](O)CC(=O)O[C@H]1C)C[C@H](O)[C@H]2C(=O)NCCO | 2 (≈ 1.93 µM) | 2 (≈ 1.93 µM) | 8 (≈ 7.71 µM) | 8 (≈ 7.71 µM) | 4 (≈ 3.85 µM) | 2 (≈ 1.93 µM)
CNCC(=O)N[C@@H]1[C@H](O)[C@H](O[C@H]2/C=C/C=C/C=C/C=C/C=C/C=C/C=C/[C@H](C)[C@@H](O)[C@@H](C)[C@H](C)OC(=O)C[C@H](O)C[C@H](O)CC[C@@H](O)[C@H](O)C[C@H](O)C[C@]3(O)C[C@H](O)[C@@H](C(=O)NCCCN(C)C)[C@H](C2)O3)O[C@H](C)[C@H]1O | 2 (≈ 1.85 µM) | 2 (≈ 1.85 µM) | 4 (≈ 3.71 µM) | 2 (≈ 1.85 µM) | 16 (≈ 14.8 µM) | 1 (≈ 0.926 µM)
CNCC(=O)N[C@@H]1[C@H](O)[C@H](O[C@H]2/C=C/C=C/C=C/C=C/C=C/C=C/C=C/[C@H](C)[C@@H](O)[C@@H](C)[C@H](C)OC(=O)C[C@H](O)C[C@H](O)CC[C@@H](O)[C@H](O)C[C@H](O)C[C@]3(O)C[C@H](O)[C@@H](C(=O)N4CCN(C(C)=O)CC4)[C@H](C2)O3)O[C@H](C)[C@H]1O | 2 (≈ 1.81 µM) | 4 (≈ 3.62 µM) | 4 (≈ 3.62 µM) | 4 (≈ 3.62 µM) | 8 (≈ 7.24 µM) | 2 (≈ 1.81 µM)

More lines, in order of falling MIC (Candida albicans), values ahead:

MIC (Candida albicans) [µg/mL] | MIC (Pichia kudriavzevii [1]) [µg/mL] | MIC (Candida parapsilosis) [µg/mL] | MIC (Candida tropicalis) [µg/mL] | MIC (Pichia kudriavzevii [2]) [µg/mL] | MIC (Cryptococcus neoformans) [µg/mL] | SMILES
4 (≈ 3.39 µM) | 8 (≈ 6.78 µM) | 4 (≈ 3.39 µM) | 16 (≈ 13.6 µM) | 16 (≈ 13.6 µM) | 4 (≈ 3.39 µM) | CNCC(=O)N[C@@H]1[C@H](O)[C@H](O[C@H]2/C=C/C=C/C=C/C=C/C=C/C=C/C=C/[C@H](C)[C@@H](O)[C@@H](C)[C@H](C)OC(=O)C[C@H](O)C[C@H](O)CC[C@@H](O)[C@H](O)C[C@H](O)C[C@]3(O)C[C@H](O)[C@@H](C(=O)N4CCN(C(=O)COCCOC)CC4)[C@H](C2)O3)O[C@H](C)[C@H]1O
2 (≈ 1.71 µM) | 4 (≈ 3.42 µM) | 2 (≈ 1.71 µM) | 4 (≈ 3.42 µM) | 16 (≈ 13.7 µM) | 2 (≈ 1.71 µM) | CNCC(=O)N[C@@H]1[C@H](O)[C@H](O[C@H]2/C=C/C=C/C=C/C=C/C=C/C=C/C=C/[C@H](C)[C@@H](O)[C@@H](C)[C@H](C)OC(=O)C[C@H](O)C[C@H](O)CC[C@@H](O)[C@H](O)C[C@H](O)C[C@]3(O)C[C@H](O)[C@@H](C(=O)N4CCN(CCS(C)(=O)=O)CC4)[C@H](C2)O3)O[C@H](C)[C@H]1O
1 (≈ 0.951 µM) | 1 (≈ 0.951 µM) | 1 (≈ 0.951 µM) | 2 (≈ 1.9 µM) | 16 (≈ 15.2 µM) | 0.5 (≈ 0.476 µM) | C[C@@H]1[C@H](O)[C@@H](C)/C=C/C=C/C=C/C=C/C=C/C=C/C=C/[C@H](O[C@@H]2O[C@H](C)[C@@H](O)[C@H](NC(=O)CN)[C@@H]2O)C[C@@H]2O[C@](O)(C[C@@H](O)C[C@@H](O)[C@H](O)CC[C@@H](O)C[C@@H](O)CC(=O)O[C@H]1C)C[C@H](O)[C@H]2C(=O)NCCN(C)C
1 (≈ 0.976 µM) | 2 (≈ 1.95 µM) | 4 (≈ 3.91 µM) | 4 (≈ 3.91 µM) | 4 (≈ 3.91 µM) | 2 (≈ 1.95 µM) | C[C@@H]1[C@H](O)[C@@H](C)/C=C/C=C/C=C/C=C/C=C/C=C/C=C/[C@H](O[C@@H]2O[C@H](C)[C@@H](O)[C@H](NC(=O)CN)[C@@H]2O)C[C@@H]2O[C@](O)(C[C@@H](O)C[C@@H](O)[C@H](O)CC[C@@H](O)C[C@@H](O)CC(=O)O[C@H]1C)C[C@H](O)[C@H]2C(=O)NCCO
0.5 (≈ 0.469 µM) | 0.5 (≈ 0.469 µM) | 2 (≈ 1.88 µM) | 0.5 (≈ 0.469 µM) | 16 (≈ 15 µM) | 0.125 (≈ 0.117 µM) | C[C@@H]1[C@H](O)[C@@H](C)/C=C/C=C/C=C/C=C/C=C/C=C/C=C/[C@H](O[C@@H]2O[C@H](C)[C@@H](O)[C@H](NC(=O)CCN)[C@@H]2O)C[C@@H]2O[C@](O)(C[C@@H](O)C[C@@H](O)[C@H](O)CC[C@@H](O)C[C@@H](O)CC(=O)O[C@H]1C)C[C@H](O)[C@H]2C(=O)NCCN(C)C
0.25 (≈ 0.251 µM) | 0.5 (≈ 0.503 µM) | 1 (≈ 1.01 µM) | 0.5 (≈ 0.503 µM) | 0.5 (≈ 0.503 µM) | 0.03 (≈ 0.0302 µM) | CCC(=O)NNC(=O)[C@H]1[C@@H]2C[C@@H](O[C@@H]3O[C@H](C)[C@@H](O)[C@H](N)[C@@H]3O)/C=C/C=C/C=C/C=C/C=C/C=C/C=C/[C@H](C)[C@@H](O)[C@@H](C)[C@H](C)OC(=O)C[C@H](O)C[C@H](O)CC[C@@H](O)[C@H](O)C[C@H](O)C[C@](O)(C[C@@H]1O)O2
